Consider 20 compounds from US20180147187A1, “COMPOUNDS, COMPOSITIONS, AND METHODS FOR INCREASING CFTR ACTIVITY” (Proteostasis Therapeutics, Inc., priority 2006, published 2018).

Assay [1] has as its target T1, ΔF508-CFTR (Homo sapiens, UniProt P13569, DEL508-508).
T1 construct: primary lung epithelial cells (hBEs) homozygous for the Cystic Fibrosis-causing ΔF508 mutation; endogenous in cells; host or cells: primary human bronchial epithelial cells (hBE), ΔF508/ΔF508, differentiated at air-liquid interface
Briefly: hBE Equivalent Current (Ieq) Assay. The class given is cell-based. To be noted: compound at 10 uM and VX-809 at 1 uM; ΔF508 homozygous hBE, 24 hours; AUC of equivalent chloride current. As for the experimental part:
Primary lung epithelial cells homozygous for the Cystic Fibrosis-causing ΔF508 mutation were differentiated for a minimum of 4 weeks in an air-liquid interface on Costar 24 well HTS filter plates prior to the equivalent current (Ieq) measurements. Cells were apically mucus-washed for 30 minutes 24 h prior to treatment with compounds. The basolateral media was removed and replaced with media containing the compound of interest diluted to its final concentration from DMSO stocks. Treated cells were incubated at 37° C. and 5% CO2 for 24 hours. At the end of the treatment period, the media was changed to the Ieq experimental solution for 30 minutes before the experiment and plates are maintained in a CO2-free incubator during this period. The plates containing the cells were then placed in pre-warmed heating blocks at 36° C.±0.5 for 15 minutes before measurements are taken. The transepithelial voltage (VT) and conductance (GT) were measured using a custom 24 channel current clamp (TECC-24) with 24 well electrode manifold. The Ieq assay measurements were made following additions with standardized time periods: • 1. The baseline VT and GT values were measured for approximately 20 minutes. • 2. Benzamil was added to block ENaC for 15 minutes. • 3. Forskolin plus VX-770 (ivacaftor) were added to maximally activate ΔF508-CFTR for 27 minutes. • 4. Bumetanide was added to inhibit the NaK2C1 cotransporter and shut-off secretion of chloride.
The activity data captured was the area under the curve (AUC) for the traces of the equivalent chloride current. The AUC was collected from the time of the forskolin/VX-770 addition until the inhibition by bumetanide addition. Correction in response to compound treatment was scored as the increase in the AUC for compound-treated samples over that of vehicle-treated samples.
(§1) (** indicates activity ≥200% of VX-809 (1 uM) with compound at 10 uM and VX-809 at 1 uM; * indicates activity 100-200% of VX-809 (1 uM) with compound at 10 uM and VX-809 at 1 uM. ^## indicates activity ≥200% of VX-809 (3 uM) with compound at 10 uM and VX-809 at 3 uM; ^# indicates activity 100-200% of VX-809 (3 uM) with compound at 10 uM and VX-809 at 3 uM.

Assay [2] deals with T1, ΔF508-CFTR. The experiment in a line: Ussing measurements, hBEs homozygous for ΔF508. It counts as cell-based. To be noted: compound at 10 uM and VX-809 at 3 uM; ΔF508 homozygous hBE, 24 hours; CFTRinh-172 inhibitable current. As for the experimental part:
As discussed above, Ussing measurements can be used to measure CFTR activity. In this example, primary lung epithelial cells (hBEs) homozygous for the Cystic Fibrosis-causing ΔF508 mutation were differentiated for a minimum of 4 weeks in an air-liquid interface on SnapWell filter plates prior to the Ussing measurements. Cells were apically mucus-washed for 30 minutes prior to treatment with compounds. The basolateral media was removed and replaced with media containing the compound of interest diluted to its final concentration from DMSO stocks. Treated cells were incubated at 37° C. and 5% CO2 for 24 hours. At the end of the treatment period, the cells on filters were transferred to the Ussing chamber and equilibrated for 30 minutes. The short-circuit current was measured in voltage clamp-mode (Vhold=0 mV), and the entire assay was conducted at a temperature of 36° C.-36.5° C. Once the voltages stabilized, the chambers were clamped, and data was recorded by pulse readings every 5 seconds. Following baseline current stabilization, the following additions were applied and the changes in current and resistance of the cells was monitored: • 1. Benzamil to the apical chamber to inhibit ENaC sodium channel. • 2. Forskolin to both chambers to activate ΔF508-CFTR by phosphorylation. • 3. Genistein or VX-770 (ivacaftor) to both chambers to potentiate ΔF508-CFTR channel opening. • 4. CFTRinh-172 to the apical chamber to inhibit ΔF508-CFTR Cl— conductance.
The inhibitable current (that current that is blocked by CFTRinh-172) is measured as the specific activity of the ΔF508-CFTR channel, and increases in response to compound in this activity over that observed in vehicle-treated samples are identified as the correction of ΔF508-CFTR function imparted by the compound tested.
as §1

A further assay relates to CFTR, G551D/F508del HBEs. Briefly: Ussing measurements, class III mutation hBEs (G551D/F508del). Conditions: VX-661 3 uM, Ivacaftor 1 uM, Compound A 10 uM, 24 hours. It counts as cell-based, human. The protocol: (§2) As discussed above, Ussing measurements was used to measure CFTR activity. In this method, primary lung epithelial cells (hBEs) with a Cystic Fibrosis-causing class III mutation were differentiated for a minimum of 4 weeks in an air-liquid interface on SnapWell™ filter plates prior to the Ussing measurements. Cells were apically mucus-washed for 30 minutes prior to treatment with compounds. The basolateral media was removed and replaced with media containing the compound of interest diluted to its final concentration from DMSO stocks. Treated cells were incubated at 37° C. and 5% CO2 for 24 hours. At the end of the treatment period, the cells on filters were transferred to the Ussing chamber and equilibrated for 30 minutes. The short-circuit current was measured in voltage clamp-mode (Vhold=0 mV), and the entire assay was conducted at a temperature of 36° C.-36.5° C. Once the voltages stabilized, the chambers were clamped, and data was recorded by pulse readings every 5 seconds. Following baseline current stabilization, the following additions were applied and the changes in current and resistance of the cells was monitored: • 1. Benzamil to the apical chamber to inhibit ENaC sodium channel. • 2. Forskolin to both chambers to activate ΔF508-CFTR by phosphorylation. • 3. Genistein or VX-770 (ivacaftor) to the apical chamber to potentiate ΔF508-CFTR channel opening. • 4. CFTRinh-172 to the apical chamber to inhibit ΔF508-CFTR Cl— conductance.
(§3) The forskolin-sensitive current and inhibitable current (that potentiated current that is blocked by CFTRinh-172) were measured as the specific activity of the ΔF508-CFTR channel, and increase in response to compound in this activity over that observed in vehicle-treated samples were identified as the correction of ΔF508-CFTR function imparted by the compound tested.
(§4) The results are shown below in Tables 5 and 6. VX-661 is 3 uM, Ivacaftor is 1 uM and Compound A is 10 uM.

Another assay relates to CFTR, S549N/F508del HBEs. The experiment in a line: Ussing measurements, class III mutation hBEs (S549N/F508del). The class given is cell-based, human. To be noted: Ivacaftor 1 uM, Compound A 10 uM, 24 hours. The protocol:
as §2, §3, §4

T1 sequence (P13569 with tags, fused parts or gaps DEL508-508): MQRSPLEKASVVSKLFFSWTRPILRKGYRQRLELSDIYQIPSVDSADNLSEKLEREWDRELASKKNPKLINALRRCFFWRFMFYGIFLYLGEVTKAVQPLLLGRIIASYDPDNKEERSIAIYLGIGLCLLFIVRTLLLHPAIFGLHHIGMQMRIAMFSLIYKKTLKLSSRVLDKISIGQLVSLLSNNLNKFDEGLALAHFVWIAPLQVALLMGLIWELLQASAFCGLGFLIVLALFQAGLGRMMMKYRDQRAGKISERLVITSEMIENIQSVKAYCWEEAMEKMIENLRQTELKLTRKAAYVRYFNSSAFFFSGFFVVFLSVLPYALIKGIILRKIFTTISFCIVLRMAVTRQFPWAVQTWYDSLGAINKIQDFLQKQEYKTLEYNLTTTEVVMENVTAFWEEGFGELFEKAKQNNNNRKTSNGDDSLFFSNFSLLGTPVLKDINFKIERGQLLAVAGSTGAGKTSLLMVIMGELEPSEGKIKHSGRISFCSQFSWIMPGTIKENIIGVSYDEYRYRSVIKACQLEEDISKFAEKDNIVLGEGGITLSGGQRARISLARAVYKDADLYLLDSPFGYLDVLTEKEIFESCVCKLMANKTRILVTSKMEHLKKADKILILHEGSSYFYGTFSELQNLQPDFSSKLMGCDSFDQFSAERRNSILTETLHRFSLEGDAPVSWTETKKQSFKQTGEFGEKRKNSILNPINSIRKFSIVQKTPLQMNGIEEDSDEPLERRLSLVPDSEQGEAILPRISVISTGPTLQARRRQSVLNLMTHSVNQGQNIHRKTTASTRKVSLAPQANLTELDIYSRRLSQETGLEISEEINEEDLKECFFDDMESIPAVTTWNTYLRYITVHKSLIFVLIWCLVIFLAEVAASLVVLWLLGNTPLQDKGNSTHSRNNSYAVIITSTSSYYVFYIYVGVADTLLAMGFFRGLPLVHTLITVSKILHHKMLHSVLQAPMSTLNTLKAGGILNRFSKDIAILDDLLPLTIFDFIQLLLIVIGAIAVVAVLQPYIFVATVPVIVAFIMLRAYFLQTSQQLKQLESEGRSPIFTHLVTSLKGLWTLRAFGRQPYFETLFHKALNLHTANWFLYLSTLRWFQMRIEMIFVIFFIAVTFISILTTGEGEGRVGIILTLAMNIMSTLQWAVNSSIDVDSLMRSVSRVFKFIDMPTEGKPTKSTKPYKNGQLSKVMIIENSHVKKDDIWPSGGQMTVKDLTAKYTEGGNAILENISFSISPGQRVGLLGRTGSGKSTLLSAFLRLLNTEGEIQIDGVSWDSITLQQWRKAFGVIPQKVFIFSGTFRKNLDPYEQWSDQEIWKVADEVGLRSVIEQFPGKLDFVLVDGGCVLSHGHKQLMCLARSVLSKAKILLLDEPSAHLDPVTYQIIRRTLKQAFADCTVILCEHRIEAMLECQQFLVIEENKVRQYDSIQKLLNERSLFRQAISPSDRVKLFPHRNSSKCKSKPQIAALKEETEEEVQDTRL

As for `O=C(N[C@H]1C[C@H](n2nncc2CO)C1)c1cc(-c2ccccc2)on1`, at ΔF508-CFTR [1], the “Ieq (% VX-809)” value was “* (* indicates activity 100-200% of VX-809 (1 uM) with compound at 10 uM and VX-809 at 1 uM)”. Further, on ΔF508-CFTR [2], the “Ussing (% VX-809)” value is “## (^## indicates activity ≥200% of VX-809 (3 uM) with compound at 10 uM and VX-809 at 3 uM)”. As for `O=C(N[C@H]1C[C@H](n2cc(CO)nn2)C1)c1cc(-c2ccccc2)on1`, the “Ieq (% VX-809)” value at ΔF508-CFTR [1] was “* (* indicates activity 100-200% of VX-809 (1 uM) with compound at 10 uM and VX-809 at 1 uM)”. Also, on ΔF508-CFTR [2], the “Ussing (% VX-809)” value was “## (^## indicates activity ≥200% of VX-809 (3 uM) with compound at 10 uM and VX-809 at 3 uM)”. `O=C(N[C@H]1C[C@@H](n2nncc2CO)C1)c1cc(-c2ccccc2)on1`: the “Ieq (% VX-809)” value at ΔF508-CFTR [1] was “** (** indicates activity ≥200% of VX-809 (1 uM) with compound at 10 uM and VX-809 at 1 uM)”. In addition, the “Ussing (% VX-809)” value on ΔF508-CFTR [2] is “## (^## indicates activity ≥200% of VX-809 (3 uM) with compound at 10 uM and VX-809 at 3 uM)”. As for `O=C(N[C@H]1C[C@@H](n2cc(CO)nn2)C1)c1cc(-c2ccccc2)on1`, at ΔF508-CFTR [1], the “Ieq (% VX-809)” value was “** (** indicates activity ≥200% of VX-809 (1 uM) with compound at 10 uM and VX-809 at 1 uM)”. On ΔF508-CFTR [2], the “Ussing (% VX-809)” value is “## (^## indicates activity ≥200% of VX-809 (3 uM) with compound at 10 uM and VX-809 at 3 uM)”. For the compound `C[C@H](O)c1cnnn1[C@H]1C[C@@H](NC(=O)c2cc(-c3ccccc3)on2)C1`, the “Ieq (% VX-809)” value at ΔF508-CFTR [1] is “** (** indicates activity ≥200% of VX-809 (1 uM) with compound at 10 uM and VX-809 at 1 uM)”. The “Ussing (% VX-809)” value at ΔF508-CFTR [2] was “## (^## indicates activity ≥200% of VX-809 (3 uM) with compound at 10 uM and VX-809 at 3 uM)”. For the compound `C[C@@H](O)c1cnnn1[C@H]1C[C@@H](NC(=O)c2cc(-c3ccccc3)on2)C1`, the “Ieq (% VX-809)” value on ΔF508-CFTR [1] is “** (** indicates activity ≥200% of VX-809 (1 uM) with compound at 10 uM and VX-809 at 1 uM)”.

Regarding `C[C@H](O)c1cn([C@H]2C[C@@H](NC(=O)c3cc(-c4ccccc4)on3)C2)nn1`, on ΔF508-CFTR [1], the “Ieq (% VX-809)” value was “** (** indicates activity ≥200% of VX-809 (1 uM) with compound at 10 uM and VX-809 at 1 uM)”. As to `C[C@@H](O)c1cn([C@H]2C[C@@H](NC(=O)c3cc(-c4ccccc4)on3)C2)nn1`, the “Ieq (% VX-809)” value on ΔF508-CFTR [1] is “** (** indicates activity ≥200% of VX-809 (1 uM) with compound at 10 uM and VX-809 at 1 uM)”. `O=C(N[C@H]1C[C@@H](Cc2nnc(CO)s2)C1)c1cc(-c2ccccc2)on1`: the “Ieq (% VX-809)” value on ΔF508-CFTR [1] is “** (** indicates activity ≥200% of VX-809 (1 uM) with compound at 10 uM and VX-809 at 1 uM)”. Further, the “Ussing (% VX-809)” value on ΔF508-CFTR [2] is “## (^## indicates activity ≥200% of VX-809 (3 uM) with compound at 10 uM and VX-809 at 3 uM)”. Consider `O=C(N[C@H]1C[C@H](Cc2nnc(CO)s2)C1)c1cc(-c2ccccc2)on1`, for which, at ΔF508-CFTR [1], the “Ieq (% VX-809)” value is “** (** indicates activity ≥200% of VX-809 (1 uM) with compound at 10 uM and VX-809 at 1 uM)”. Regarding `O=C(NC[C@H]1C[C@@H](c2nnc(CO)s2)C1)c1cc(-c2ccccc2)on1`, the “Ieq (% VX-809)” value at ΔF508-CFTR [1] is “** (** indicates activity ≥200% of VX-809 (1 uM) with compound at 10 uM and VX-809 at 1 uM)”. Same read-out and setting: with `O=C(NC[C@H]1C[C@H](c2nnc(CO)s2)C1)c1cc(-c2ccccc2)on1` the entry was “** (** indicates activity ≥200% of VX-809 (1 uM) with compound at 10 uM and VX-809 at 1 uM)”; with `O=C(N[C@H]1C[C@@H](c2nnc(CO)s2)C1)c1cc(-c2ccccc2)on1`, “** (** indicates activity ≥200% of VX-809 (1 uM) with compound at 10 uM and VX-809 at 1 uM)”. As to `O=C(NC1CC(c2nnc(CO)o2)C1)c1cc(-c2ccccc2)on1` (centres unmarked), on ΔF508-CFTR [2], the “Ussing (% VX-809)” value was “## (^## indicates activity ≥200% of VX-809 (3 uM) with compound at 10 uM and VX-809 at 3 uM)”. Still for that read-out and setting: with `C[C@H](O)c1nnc(C2CC(NC(=O)c3cc(-c4ccccc4)on3)C2)o1` (some centres unmarked) the entry was “## (^## indicates activity ≥200% of VX-809 (3 uM) with compound at 10 uM and VX-809 at 3 uM)”; with `C[C@@H](O)c1nnc(C2CC(NC(=O)c3cc(-c4ccccc4)on3)C2)o1` (some centres unmarked), “## (^## indicates activity ≥200% of VX-809 (3 uM) with compound at 10 uM and VX-809 at 3 uM)”. Turning to `O=C(N[C@H]1C[C@@H](n2cc(CO)cn2)C1)c1cc(-c2ccccc2)on1`, the “Ieq (% VX-809)” value at ΔF508-CFTR [1] is “* (* indicates activity 100-200% of VX-809 (1 uM) with compound at 10 uM and VX-809 at 1 uM)”.

Consider `O=C(N[C@H]1C[C@@H](n2ccc(CO)n2)C1)c1cc(-c2ccccc2)on1`, for which, on ΔF508-CFTR [1], the “Ieq (% VX-809)” value was “** (** indicates activity ≥200% of VX-809 (1 uM) with compound at 10 uM and VX-809 at 1 uM)”. Turning to `CC(C)(CO)c1cc2cc(NC(=O)C3(c4ccc5c(c4)OC(F)(F)O5)CC3)c(F)cc2n1C[C@@H](O)CO` [VX-661, 1-(2,2-difluoro-1,3-benzodioxol-5-yl)-N-[1-[(2R)-2,3-dihydroxypropyl]-6-fluoro-2-(2-hydroxy-1,1-dimethylethyl)-1H-indol-5-yl]-cyclopropanecarboxamide], in the assay with CFTR, G551D/F508del HBEs, the “Activity in G551D/F508del HBEs” value turned out to be 3.8 uAMP/cm^2. In the case of `Cc1ccc(NC(=O)C2(c3ccc4c(c3)OC(F)(F)O4)CC2)nc1-c1cccc(C(=O)O)c1` [VX-809, 3-(6-(1-(2,2-difluorobenzo[d][1,3]dioxol-5-yl)cyclopropanecarboxamido)-3-methylpyridin-2-yl)benzoic acid], the “Activity in S549N/F508del HBEs” value in the assay with CFTR, S549N/F508del HBEs amounted to 6.4 uAMP/cm^2.
